According to patent US12263248B2, “Compounds and compositions for intracellular delivery of therapeutic agents” (ModernaTX, Inc., priority 2018, dated 2025):
Marks after values point to notes of the source that are not given here.

Experiments:
[1] = Encapsulation efficiency of RNA (QUANT-IT RIBOGREEN RNA assay); format: physicochemical; conditions: for % EE: compositions for subcutaneous administration
Procedure, shortened: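 RiboGreen fluorescence (ex ~480, em ~520 nm) compared between intact samples and Triton X-100-lysed samples after 15 min at 37 °C in TE buffer, pH 7.5. Percent free RNA is the blank-corrected intact/disrupted ratio.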

[2] = Apparent (surface) pKa of the LNP formulation (TNS assay); format: physicochemical; conditions: for App. pKa: Table 3F
Procedure, shortened: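 LNP (0.04 mg/mL mRNA) mixed with TNS reagent in 21 buffers spanning about pH 3-12, in triplicate; fluorescence plotted against pH as sigmoidal curve. Apparent pKa taken as […] curve inflection point; validated in 1× PBS and 20 mM Tris w/8% sucrose.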

[3] = Particle size and polydispersity index of nanoparticle compositions (Zetasizer Nano ZS); format: physicochemical
Procedure, shortened: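 Particle size and PDI were measured on a Zetasizer Nano ZS with the nanoparticle compositions dispersed in 1×PBS.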

[4] = system: luciferase mRNA; experiment: Luciferase expression after subcutaneous administration to mice; format: in vivo, female CD-1 mice; conditions: for Novel lipid/MC3 expression ratio, s.c. Luc 0.5 mpk (AUC) / Novel lipid/MC3 expression ratio, 6 hr. time point, s.c. Luc 0.5 mpk / Novel lipid/MC3 expression ratio, 6 hr. time point, s.c. Luc 0.05 mpk: relative to MC3; for Novel lipid/MC3 expression ratio, s.c. Luc 0.5 mpk (AUC) / Lipid/MC3 AUC ratio / AUC (luciferase expression) / Novel lipid/MC3 expression ratio, 6 hr. time point, s.c. Luc 0.5 mpk: 0.5 mpk; for Lipid/MC3 AUC ratio: luciferase; for AUC (luciferase expression): whole body BLI; for Novel lipid/MC3 ratio, s.c. Luc 6 hr.: relative to MC3, Table 3G
Protocol: The effect of the lipids of the disclosure on protein expression upon subcutaneous administration was studied. Formulations containing lipids of the disclosure and an mRNA expressing luciferase or hEPO were administered subcutaneously to female CD-1 mice at 0.5 mpk. Expression levels were obtained via whole body luminescent imaging (BLI) at 3, 6 and 24 hours after injection and expression levels in liver, spleen and at the injection site were evaluated ex vivo after 24 hours. […] See also Tables 35 and 36, and FIGS. 19 and 27.
Table 35 summarizes the luciferase expression levels using various nanoparticle compositions of the disclosure, and the luciferase expression levels using various nanoparticle compositions of the disclosure as compared to the luciferase expression level using an MC3 formulation after subcutaneous administration, as described above.

[5] = Table 1A, lipid:DSPC:cholesterol:PEG-DMG 50:10:38.5:1.5 mol %
[6] = Table 1C, compositions for subcutaneous administration
[7] = Table 1E, compositions for subcutaneous administration
[8] = Table 1B, formulated with hEPO mRNA

Compound | EE (%) ([1]; Table 1A) | pKa ([2]; Table 1A) | PDI ([3]; Table 1A) | Size (nm) [3, 5] | further results
CCCCCCCCCOC(=O)CCCCCCCN(CCCCCCCC(=O)OC(CCCCCCCC)CCCCCCCC)CCCNC(=S)NC [Compound 113, Heptadecan-9-yl 8-((3-(3-methylthioureido)propyl)(8-(nonyloxy)-8-oxooctyl)amino)octanoate] | 96.92% | 6.93 | 0.13 | 86.8 nm | % EE ([1]; Table 1C): 99.6%; PDI [3, 6]: 0.14; Size (nm) [3, 6]: 83.9 nm; Novel lipid/MC3 expression ratio, s.c. Luc 0.5 mpk (AUC) [4]: (AUC: 4.30); Lipid/MC3 AUC ratio [4]: 4.30; AUC (luciferase expression) [4]: 7.3721E+10 (p/s) * h; Novel lipid/MC3 ratio, s.c. Luc 6 hr. [4]: 4.53
CCCCCCCCC(CC)OC(=O)CCCN(CCO)CCCCCCCC(=O)OC(CCCCCCCC)CCCCCCCC (stereo not shown) [Compound 72, Heptadecan-9-yl 8-((2-hydroxyethyl)(4-oxo-4-(undecan-3-yloxy)butyl)amino)octanoate] | 94.69% | 6.29 | 0.10 | 76.8 nm | % EE ([1]; Table 1C): 94.9%; PDI [3, 6]: 0.10; Size (nm) [3, 6]: 77.3 nm; Novel lipid/MC3 expression ratio, s.c. Luc 0.5 mpk (AUC) [4]: (AUC: 2.01); Lipid/MC3 AUC ratio [4]: 2.01; AUC (luciferase expression) [4]: 3.4417E+10 (p/s) * h; Novel lipid/MC3 ratio, s.c. Luc 6 hr. [4]: 2.18
CCCCCCCCCCCCCCN(CCO)CCCCCCCC(=O)OC(CCCCCCCC)CCCCCCCC [Compound 2, Heptadecan-9-yl 8-((2-hydroxyethyl)(tetradecyl)amino)octanoate] | 93.88% | 6.73 | 0.14 | 83.9 nm | 
CCCCCCCCC(CCCCCCCC)OC(=O)CCCCCCCN(CCO)CCCCCC(=O)OC(CCCCCCCC)C1CC1 (stereo not shown) [Compound 128, Heptadecan-9-yl 8-((6-((1-cyclopropylnonyl)oxy)-6-oxohexyl)(2-hydroxyethyl)amino)octanoate] | 92.45% | 6.56 | 0.22 | 104.1 nm | % EE ([1]; Table 1E): 94%; PDI [3, 7]: 0.13; Size (nm) [3, 7]: 73.9 nm; Novel lipid/MC3 expression ratio, 6 hr. time point, s.c. Luc 0.5 mpk [4]: 0.47
CCCCCCCCCOC(=O)CCCCCCCN(CCCO)CCCCCCCC(=O)OC(CCCCCCCC)CCCCCCCC [Compound 19, Heptadecan-9-yl 8-((3-hydroxypropyl)(8-(nonyloxy)-8-oxooctyl)amino) octanoate] | 97.21% | 6.78 | 0.17 | 101.1 nm | % EE ([1]; Table 1E): 93%; PDI [3, 7]: 0.13; Size (nm) [3, 7]: 80.7 nm; Novel lipid/MC3 expression ratio, 6 hr. time point, s.c. Luc 0.5 mpk [4]: 2.13
CCCCCCCCCOC(=O)CCCCCCCN(CCO)CCCCCCCC(=O)N(CCCCCCCC)CCCCCCCC [Compound 144, Nonyl 8-((8-(dioctylamino)-8-oxooctyl)(2-hydroxyethyl)amino)octanoate] | 90.3% | 7.09 | 0.22 | 135.9 nm | 
CCCCCCCCCOC(=O)CCCCCCCN(CCO)CCCCCCC(=O)OCC(CCCCCCCC)CCCCCCCC [Compound 143, Nonyl 8-((2-hydroxyethyl)(7-((2-octyldecyl)oxy)-7-oxoheptyl)amino)octanoate] | 97.37% | 6.47 | 0.21 | 98.8 nm | 
CCCCCCCCCN(CCCO)CCCCCCCC(=O)OC(CCCCCCCC)CCCCCCCC [Compound 7, Heptadecan-9-yl 8-((3-hydroxypropyl)(nonyl)amino)octanoate] | 86.10% | 6.75 | 0.22 | 118.9 nm | App. pKa [2]: 6.74; Novel lipid/MC3 expression ratio, 6 hr. time point, s.c. Luc 0.05 mpk [4]: 2.40; Novel lipid/MC3 expression ratio, 6 hr. time point, s.c. Luc 0.5 mpk [4]: 2.29
CCCCCCCCCOC(=O)CCCCCCCN(CCO)CCCCCCCCCC(=O)OC(CCCCCCCC)CCCCCCCC [Compound 23, Heptadecan-9-yl 10-((2-hydroxyethyl)(8-(nonyloxy)-8-oxooctyl)amino) decanoate] | 92.68% | 6.84 | 0.09 | 104.5 nm | % EE ([1]; Table 1E): 98%; App. pKa [2]: 6.88; PDI [3, 7]: 0.13; Size (nm) [3, 7]: 70.5 nm; Novel lipid/MC3 expression ratio, 6 hr. time point, s.c. Luc 0.5 mpk [4]: 1.02
CCCCCCCCC(CCCCCCCC)OC(=O)CCCCCCCN(CCO)CCCCCCCC(=O)OCC1CC1CCCCCC (stereo not shown) [Compound 28, Heptadecan-9-yl 8-((8-((2-hexylcyclopropyl)methoxy)-8-oxooctyl)(2-hydroxyethyl)amino)octanoate] | 97.03% | 6.04 | 0.20 | 99.4 nm | 
CCCCCCCCCOC(=O)CCCCCCCN(CCCCCCCC(=O)OC(CCCCCCCC)CCCCCCCC)C[C@H](C)O [Compound 12, Heptadecan-9-yl (S)-8-((2-hydroxypropyl)(8-(nonyloxy)-8-oxooctyl)amino)octanoate] | 92.44% | 5.99 | 0.17 | 116.7 nm | 
CCCCCCCCCOC(=O)CCCCCCCN(CCO)CCCCCC(=O)OC(CCCCCCCC)CCCCCCCC [Compound 27, Nonyl 8-((6-(heptadecan-9-yloxy)-6-oxohexyl)(2-hydroxyethyl)amino) octanoate] | 94.27% | 6.78 | 0.18 | 82.3 nm | Novel lipid/MC3 expression ratio, 6 hr. time point, s.c. Luc 0.05 mpk [4]: 14.45
CCCCCCCCC(CCCCCCCC)OC(=O)CCCCCCCN(CCO)CCCCCC [Compound 5, Heptadecan-9-yl 8-(hexyl(2-hydroxyethyl)amino)octanoate] | 77.07% | 6.84 | 0.21 | 196.4 nm | 
CCCCCCCCC(CC)OC(=O)CCCCCN(CCO)CCCCCCCC(=O)OC(CCCCCCCC)CCCCCCCC (stereo not shown) [Compound 75, Heptadecan-9-yl 8-((2-hydroxyethyl)(6-oxo-6-(undecan-3-yloxy)hexyl)amino)octanoate] | 92.3% | 6.67 | 0.17 | 92.1 nm | % EE ([1]; Table 1C): 94.9%; PDI [3, 6]: 0.13; Size (nm) [3, 6]: 88.6 nm; Novel lipid/MC3 expression ratio, s.c. Luc 0.5 mpk (AUC) [4]: (AUC: 3.05); Lipid/MC3 AUC ratio [4]: 3.05; AUC (luciferase expression) [4]: 5.2262E+10 (p/s) * h; Novel lipid/MC3 ratio, s.c. Luc 6 hr. [4]: 3.08
CCCCCCCCCOC(=O)CCCCCCCN(CCO)CCCCCCCCCC(=O)OC(CCCCCC)CCCCCC [Compound 147, Tridecan-7-yl 10-((2-hydroxyethyl)(8-(nonyloxy)-8-oxooctyl)amino)decanoate] | 88.31% | 6.66 | 0.130 | 99.5 nm | EE (%) [1, 8]: 91.0%; PDI [3, 8]: 0.22; Size (nm) [3, 8]: 111.9 nm
CCCC/C=C\CCC(CC/C=C\CCCC)OC(=O)CCCCCCCN(CCO)CCCCCC(=O)OCCCCCCCCCCC [Compound 61, (5Z,12Z)-heptadeca-5,12-dien-9-yl 8-((2-hydroxyethyl)(6-oxo-6-(undecyloxy)hexyl)amino)octanoate] | 97.40% | 6.70 | 0.15 | 82.1 nm | % EE ([1]; Table 1E): 96%; PDI [3, 7]: 0.08; Size (nm) [3, 7]: 80.0 nm; Novel lipid/MC3 expression ratio, 6 hr. time point, s.c. Luc 0.5 mpk [4]: 0.70
CCCCCCCCCOC(=O)CCCCCCCN(CCCCO)CCCCCCCC(=O)OC(CCCCCCCC)CCCCCCCC [Compound 20, Heptadecan-9-yl 8-((4-hydroxybutyl)(8-(nonyloxy)-8-oxooctyl)amino) octanoate] | 96.72% | 6.87 | 0.13 | 86.7 nm | % EE ([1]; Table 1C): 91.6%; pKa ([2]; Table 6): 6.87; PDI [3, 6]: 0.13; Size (nm) [3, 6]: 86.7 nm; Novel lipid/MC3 expression ratio, s.c. Luc 0.5 mpk (AUC) [4]: (AUC: 4.02); Lipid/MC3 AUC ratio [4]: 4.02; AUC (luciferase expression) [4]: 6.8926E+10 (p/s) * h; Novel lipid/MC3 ratio, s.c. Luc 6 hr. [4]: 4.00
